Literature values in US7361766B2, “Bicyclic heterocycles as cannabinoid receptor modulators” (Bristol-Myers Squibb Company, priority 2005, dated 2008).
Read-outs that look alike come from different tables or passages of the source.

What was measured:
[1] = chronic administration for two weeks
CB-1 = settings: multiple species including humans
[2] = human subjects, 16 week trial period

Row | SMILES | body weight [1] | body weight (CB-1) | food intake (CB-1) | body weight [2]
1 | Cc1c(C(=O)NN2CCCCC2)nn(-c2ccc(Cl)cc2Cl)c1-c1ccc(I)cc1 [AM-251] | substantial body weight reduction | – | – | –
2 | CCCCCc1cc(O)c2c(c1)OC(C)(C)[C@@H]1CCC(C)=C[C@@H]21 [Delta-9 THC, Delta-9-tetrahydrocannabinol] | – | weight gain | increased food intake | –
3 | Cc1c(C(=O)NN2CCCCC2)nn(-c2ccc(Cl)cc2Cl)c1-c1ccc(Cl)cc1 [SR-141716] | – | – | – | dose-dependently reduced body weight
4 | CCCCC/C=C\C/C=C\C/C=C\C/C=C\CCCC(=O)NCCO [anandamide] | – | weight gain | increased food intake | –
